The source made the active and inactive calls.
How the values were obtained:
[1] = inhibitors of intracellular T. cruzi replication, confirmation, NIH3T3 host cells, beta-gal luminescence (AID 2044); type: functional, cell-based;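 also: intracellular parasites grown in NIH/3T3 mouse fibroblasts as host cells; luminescent beta-galactosidase reporter signal from transgenic T. cruzi replicating inside host cells; inhibitors lower the luminescence signal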
[2] = cytotoxicity toward NIH3T3 fibroblasts, dose response, counter-screen, cell-based, ATP luminescence, mouse fibroblasts (AID 2010); type: functional;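 also: cells exposed to compound for about 90 hours before reading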
[3] = off-target signal loss in HeLa-CEM21 co-culture – HeLa F-luc CTL cells, cherry-picked, counter-screen for HIV-1 Env fusion inhibitor project, dose response (AID 652040); type: functional, cell-based;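 also: potency for signal decrease marking cytotoxic or nonspecific inhibition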
[4] = inhibitors of clade B AD8 Env fusion, dose response, cell-based, cherry-pick (AID 652062); type: functional;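 also: luciferase signal from cell-cell fusion driven by HIV-1 clade B AD8 Env; potency is for inhibitors of fusion seen as a drop in luminescence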
[5] = target: Glyceraldehyde-3-phosphate dehydrogenase (Homo sapiens, UniProt P04406)
Bcl-2-related protein A1 [6] = target: T1, Bcl-2-related protein A1 (Mus musculus, UniProt Q07440); experiment: Bfl-1 inhibitors blocking BH3 peptide binding, confirmation, biochemical, TR-FRET, mouse Bfl-1 (AID 621);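 also: TR-FRET binding of GST-Bfl-1 to FITC-labelled Bid peptide via terbium antibody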
T1 sequence (Q07440 whole entry): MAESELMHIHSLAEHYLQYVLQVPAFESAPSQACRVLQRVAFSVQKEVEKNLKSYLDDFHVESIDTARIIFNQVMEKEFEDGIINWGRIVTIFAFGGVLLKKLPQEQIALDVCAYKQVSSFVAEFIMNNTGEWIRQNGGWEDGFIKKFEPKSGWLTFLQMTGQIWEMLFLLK

Bcl-2-related protein A1 [7] = target: T1, Bcl-2-related protein A1; experiment: Bfl-1 binding inhibitors, SAR follow-up, biochemical, fluorescence polarization (AID 1070)
[8] = target: FAD-linked sulfhydryl oxidase ALR (Homo sapiens, UniProt P55789); experiment: inhibitors of human ALR sulfhydryl oxidase, dose response, biochemical, H2O2 detection, luminescence, cherry-pick (AID 493248)
Protein skinhead-1 = target: T2, Protein skinhead-1 (Caenorhabditis elegans, UniProt P34707); type: functional
T2 sequence (P34707 whole entry): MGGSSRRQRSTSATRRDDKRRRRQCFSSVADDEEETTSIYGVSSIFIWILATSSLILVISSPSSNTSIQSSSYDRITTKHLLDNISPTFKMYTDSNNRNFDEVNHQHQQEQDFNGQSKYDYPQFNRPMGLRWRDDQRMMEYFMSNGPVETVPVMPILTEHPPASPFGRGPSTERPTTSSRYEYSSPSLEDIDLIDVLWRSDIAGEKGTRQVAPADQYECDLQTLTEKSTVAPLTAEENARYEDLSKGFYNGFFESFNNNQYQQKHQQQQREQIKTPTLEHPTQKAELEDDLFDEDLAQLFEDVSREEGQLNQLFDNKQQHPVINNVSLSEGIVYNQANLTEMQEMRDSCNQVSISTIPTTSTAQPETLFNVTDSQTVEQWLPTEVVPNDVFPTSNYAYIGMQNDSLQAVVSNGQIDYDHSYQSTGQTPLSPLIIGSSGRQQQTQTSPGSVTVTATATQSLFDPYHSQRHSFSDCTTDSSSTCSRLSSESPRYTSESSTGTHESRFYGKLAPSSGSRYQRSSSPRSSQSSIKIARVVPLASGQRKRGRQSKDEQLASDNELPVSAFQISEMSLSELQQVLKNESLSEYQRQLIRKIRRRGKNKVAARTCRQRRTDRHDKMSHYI

[9] = target: T3, Rac GTPase-activating protein 1 (Homo sapiens, UniProt Q9H0H5); experiment: MgcRacGAP GTPase-activating activity inhibitors, confirmation, biochemical, ADP Hunter fluorescence, primary and confirmatory (AID 624330); type: functional
T3 sequence (Q9H0H5 whole entry): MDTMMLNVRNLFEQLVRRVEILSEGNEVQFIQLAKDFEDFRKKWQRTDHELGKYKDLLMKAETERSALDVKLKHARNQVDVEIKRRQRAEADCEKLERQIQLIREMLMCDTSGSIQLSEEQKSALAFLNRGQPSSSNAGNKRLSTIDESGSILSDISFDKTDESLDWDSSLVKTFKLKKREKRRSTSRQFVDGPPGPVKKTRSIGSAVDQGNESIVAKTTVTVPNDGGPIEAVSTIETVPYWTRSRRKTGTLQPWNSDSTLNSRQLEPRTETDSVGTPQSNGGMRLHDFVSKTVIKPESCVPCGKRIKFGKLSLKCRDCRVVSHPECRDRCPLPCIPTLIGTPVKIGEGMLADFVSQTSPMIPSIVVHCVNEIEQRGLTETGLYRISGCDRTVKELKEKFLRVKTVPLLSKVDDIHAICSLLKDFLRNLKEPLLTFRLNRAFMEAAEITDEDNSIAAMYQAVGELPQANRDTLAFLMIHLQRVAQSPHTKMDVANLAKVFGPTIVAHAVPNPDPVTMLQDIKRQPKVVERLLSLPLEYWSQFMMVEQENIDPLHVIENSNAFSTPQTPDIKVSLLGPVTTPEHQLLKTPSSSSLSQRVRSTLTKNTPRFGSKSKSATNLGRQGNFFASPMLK

Protein Tat = target: T4, Protein Tat (Human immunodeficiency virus type 1 group M subtype B (isolate HXB2)(HIV-1), UniProt P04608); type: functional;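 also: tat binding to TAR RNA read out by fluorescence polarization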
T4 sequence (P04608 whole entry): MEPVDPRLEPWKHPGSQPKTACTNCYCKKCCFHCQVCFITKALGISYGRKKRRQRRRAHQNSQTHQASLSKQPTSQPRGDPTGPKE

[10] = inhibitors of Vif binding to APOBEC3G peptide, primary screen, biochemical, TR-FRET, GST-Vif 1-94, biotin-A3G peptide, dose response retest (AID 1117319); type: functional;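 also: TR-FRET signal of purified GST-Vif binding a biotinylated A3G peptide; inhibitors lower the FRET signal by blocking Vif and A3G binding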
[11] = target: T5, Dual specificity protein phosphatase 6 (Rattus norvegicus, UniProt Q64346); experiment: MKP-3 phosphatase inhibitors, primary screen, biochemical, rat enzyme, in vitro (AID 425)
T5 sequence (Q64346 whole entry): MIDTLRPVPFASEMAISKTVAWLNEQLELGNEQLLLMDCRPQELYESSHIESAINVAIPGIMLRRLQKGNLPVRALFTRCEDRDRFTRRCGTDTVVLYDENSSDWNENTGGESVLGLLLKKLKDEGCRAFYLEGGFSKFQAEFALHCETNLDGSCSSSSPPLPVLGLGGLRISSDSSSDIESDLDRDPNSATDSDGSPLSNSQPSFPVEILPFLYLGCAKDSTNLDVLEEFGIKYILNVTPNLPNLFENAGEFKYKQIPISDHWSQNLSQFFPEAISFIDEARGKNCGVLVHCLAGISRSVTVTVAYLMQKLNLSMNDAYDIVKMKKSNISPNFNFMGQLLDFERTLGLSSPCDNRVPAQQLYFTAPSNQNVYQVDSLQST

Cytochrome P450 1A2 = target: T6, Cytochrome P450 1A2 (Homo sapiens, UniProt P05177);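 also: PubChem cytochrome P450 panel assay, CYP1A2 panel member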
T6 sequence (P05177 whole entry): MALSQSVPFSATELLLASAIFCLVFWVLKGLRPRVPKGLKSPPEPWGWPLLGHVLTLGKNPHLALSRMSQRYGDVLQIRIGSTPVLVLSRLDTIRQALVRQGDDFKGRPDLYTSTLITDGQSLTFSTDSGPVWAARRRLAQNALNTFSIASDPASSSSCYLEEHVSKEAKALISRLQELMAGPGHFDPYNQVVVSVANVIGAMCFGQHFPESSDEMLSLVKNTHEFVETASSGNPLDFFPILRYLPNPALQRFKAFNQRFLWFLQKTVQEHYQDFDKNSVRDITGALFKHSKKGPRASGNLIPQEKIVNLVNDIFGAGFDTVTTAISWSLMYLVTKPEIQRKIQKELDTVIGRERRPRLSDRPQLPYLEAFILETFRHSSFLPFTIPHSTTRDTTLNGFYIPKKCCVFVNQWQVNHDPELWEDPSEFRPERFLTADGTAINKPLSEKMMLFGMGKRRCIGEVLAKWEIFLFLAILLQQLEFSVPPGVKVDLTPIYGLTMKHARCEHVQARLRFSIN

[12] = target: T7, Sentrin-specific protease 1 (Homo sapiens, UniProt Q9P0U3); experiment: Dose response confirmation of small molecule inhibitors of the catalytic domain of the SUMO protease, SENP1 in a FRET assay.; type: functional; settings: read-out: IC50_Mean
T7 sequence (Q9P0U3 whole entry): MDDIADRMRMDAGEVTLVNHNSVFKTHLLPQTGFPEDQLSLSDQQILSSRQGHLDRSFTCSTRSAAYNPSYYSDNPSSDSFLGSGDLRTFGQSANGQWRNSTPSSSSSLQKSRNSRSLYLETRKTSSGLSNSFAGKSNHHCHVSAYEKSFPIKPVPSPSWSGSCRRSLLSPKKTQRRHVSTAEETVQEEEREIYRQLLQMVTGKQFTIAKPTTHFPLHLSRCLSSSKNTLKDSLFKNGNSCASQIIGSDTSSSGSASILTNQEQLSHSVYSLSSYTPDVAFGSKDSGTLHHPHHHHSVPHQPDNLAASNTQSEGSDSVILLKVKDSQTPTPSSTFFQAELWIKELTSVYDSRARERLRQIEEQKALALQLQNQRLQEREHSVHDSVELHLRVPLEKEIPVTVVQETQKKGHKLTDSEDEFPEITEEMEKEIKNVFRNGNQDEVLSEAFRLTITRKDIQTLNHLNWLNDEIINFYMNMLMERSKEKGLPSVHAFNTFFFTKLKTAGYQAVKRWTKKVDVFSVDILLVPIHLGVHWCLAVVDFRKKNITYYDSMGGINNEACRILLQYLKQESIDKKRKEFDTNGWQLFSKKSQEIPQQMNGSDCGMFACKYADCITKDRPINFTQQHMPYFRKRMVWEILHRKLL

[13] = THP-1 cell cytotoxicity, dose response, cytotoxicity control for Vif-APOBEC3G degradation inhibitor project, THP-1 cells (AID 1117359); type: functional; settings: Human immunodeficiency virus 1, THP-1
[14] = inhibitors of HIV Env-driven cell fusion, dose response, cherry-pick (AID 652057); type: functional, cell-based
[15] = ZM109 Env clade C HIV-1 fusion inhibitors, dose response, HeLa effector, CEM target cells, luciferase, cherry-pick (AID 652058); type: functional, cell-based
[16] = target: T8, Mannose-6-phosphate isomerase (Homo sapiens, UniProt P34949); experiment: human PMI inhibitors, high substrate, primary screen, biochemical, fluorescence intensity, high mannose 6-phosphate (AID 1220)
T8 sequence (P34949 whole entry): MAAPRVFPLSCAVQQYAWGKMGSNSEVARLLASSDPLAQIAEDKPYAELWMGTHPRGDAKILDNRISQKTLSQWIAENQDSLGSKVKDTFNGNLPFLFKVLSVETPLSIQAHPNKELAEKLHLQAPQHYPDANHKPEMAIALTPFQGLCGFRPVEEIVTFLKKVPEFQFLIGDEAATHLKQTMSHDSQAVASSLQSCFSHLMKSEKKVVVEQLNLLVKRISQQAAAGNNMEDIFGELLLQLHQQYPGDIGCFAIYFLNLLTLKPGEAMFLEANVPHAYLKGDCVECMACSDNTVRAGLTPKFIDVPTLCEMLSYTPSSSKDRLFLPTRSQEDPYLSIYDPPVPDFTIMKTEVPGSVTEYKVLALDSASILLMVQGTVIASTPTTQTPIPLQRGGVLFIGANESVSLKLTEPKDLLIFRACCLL

[17] = P. falciparum Dd2 growth inhibitors, dose response, SYBR Green, cherry-picked samples (AID 1159567); type: functional, cell-based

Glyceraldehyde-3-phosphate dehydrogenase, sequence (P04406 whole entry): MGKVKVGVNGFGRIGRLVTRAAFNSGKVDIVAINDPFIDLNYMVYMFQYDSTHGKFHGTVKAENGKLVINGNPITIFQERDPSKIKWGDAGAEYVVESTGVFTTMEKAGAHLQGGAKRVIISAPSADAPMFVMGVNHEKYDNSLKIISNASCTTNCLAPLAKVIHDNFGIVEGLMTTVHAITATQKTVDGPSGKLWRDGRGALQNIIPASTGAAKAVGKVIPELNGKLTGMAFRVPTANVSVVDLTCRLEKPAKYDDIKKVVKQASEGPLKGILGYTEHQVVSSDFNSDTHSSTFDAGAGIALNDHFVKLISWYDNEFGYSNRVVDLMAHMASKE
FAD-linked sulfhydryl oxidase ALR, sequence (P55789 whole entry): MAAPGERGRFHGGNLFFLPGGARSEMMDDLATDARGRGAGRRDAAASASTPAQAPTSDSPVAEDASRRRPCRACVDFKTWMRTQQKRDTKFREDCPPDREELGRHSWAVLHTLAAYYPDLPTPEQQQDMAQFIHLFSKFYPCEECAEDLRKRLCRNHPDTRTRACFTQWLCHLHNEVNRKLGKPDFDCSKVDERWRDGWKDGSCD

CC(=O)c1ccc(S(=O)(=O)N2CCN(c3nc4c(C)c(C)ccc4cc3C#N)CC2)cc1
EC50 [1]: 1.9 µM (active)
EC50 [2]: > 60 µM (not active)
AC50 [3]: 10.3 µM (active)
AC50 [4]: 11.2 µM (active)

CS(=O)(=O)c1nc(-c2ccccc2)cc(-c2ccccc2)n1
IC50 [5]: > 100 µM (not active)
IC50 (Bcl-2-related protein A1 [6]): > 100 µM (not active)
IC50 (Bcl-2-related protein A1 [7]): > 100 µM (not active)

Cc1cccc(N2C(=O)C(Cl)=C(N3CCN(CCO)CC3)C2=O)c1
IC50 [5]: > 100 µM (not active)
IC50 (Bcl-2-related protein A1 [6]): 11.5 µM (active)
IC50 (Bcl-2-related protein A1 [7]): 12.3 µM (active)

CC(=O)N1CCN(c2ccc(NCc3ccccc3)cc2)CC1
AC50 [8]: 0.57 µM (active)
IC50 (Protein skinhead-1): > 100 µM (inactive)
IC50 [9]: 10.5 µM (active)
IC50 (Protein Tat): 13.7 µM (inconclusive)
IC50 [10]: > 50.5 µM (active)

COc1ccc(S(=O)(=O)N2CCC(NC(=O)Nc3ccc(C)cc3)CC2)cc1
IC50 [11]: > 100 µM (not active)
AC50 (Cytochrome P450 1A2): 31.6 µM (inconclusive)

O=C1C(Cl)=C(N2CCN(c3ncccn3)CC2)C(=O)N1c1ccc(Cl)c(Cl)c1
IC50 [5]: > 100 µM (not active)
IC50 (Bcl-2-related protein A1 [6]): 2.46 µM (active)
IC50 (Bcl-2-related protein A1 [7]): 1.9 µM (active)

Nc1cc([N+](=O)[O-])ccc1Nc1ccccc1
AC50 [8]: 0.509 µM (active)
IC50 [12]: 37.8 µM (inactive)

COc1ccc(C(=O)Cn2c(=N)n(C)c3ccccc32)cc1
CC50 [13]: > 40 µM (active)
IC50 [10]: > 100 µM (active)

CN(C)CCn1c(=O)n(-c2cccc(Cl)c2)c(=O)c2c3c(sc21)CCCCC3
AC50 [14]: 0.786 µM (active)
AC50 [15]: 0.997 µM (active)
AC50 [3]: 1.96 µM (active)
AC50 [4]: 4.37 µM (active)

Cc1cccc(Oc2c([N+](=O)[O-])c(=O)n(C)c3ccccc23)c1
IC50 [16]: > 50 µM (not active)

O=C1C(Cl)=C(Nc2ccccc2)C(=O)N1c1ccc(Cl)c(Cl)c1
IC50 [5]: > 100 µM (not active)
IC50 (Bcl-2-related protein A1 [6]): > 100 µM (not active)
IC50 (Bcl-2-related protein A1 [7]): > 100 µM (not active)

COC(=O)[C@]1(C)N[C@H](CN(C)S(=O)(=O)c2ccc(-c3ccccc3)cc2)[C@@H]2C(=O)N(Cc3ccccc3)C(=O)[C@@H]21
AC50 [14]: 3.7 µM (active)
AC50 [15]: 9.4 µM (active)
AC50 [3]: 5.77 µM (active)
AC50 [4]: 11.7 µM (active)

CC(C)n1/c(=N/C(=O)c2ccco2)c(C#N)cc2c(=O)n3ccccc3cc21
IC50 [10]: > 100 µM (active)

CCS(=O)(=O)N1[C@H](CO)[C@H](c2ccc(C#Cc3ccccc3F)cc2)[C@@H]1C#N
AC50 [17]: 4.23 µM (active)

Source: ChEMBL document CHEMBL1201862, “PubChem BioAssay data set” (2004)
